# Test results from patent US11180497B2 (ANGEX PHARMACEUTICAL, INC., priority 2017, dated 2021).
# Target: T1, Human IDO (Homo sapiens, UniProt P14902)
# T1 construct: High control is Hela cells with IFNγ treatment; endogenous in cells; host or cells: HeLa cells treated with 25 ng/ml IFNγ
# Assay: HeLa cell IDO assay (IFNγ-treated cells, N-formylkynurenine by RapidFire/MS/MS)
# Format: cell-based
# Conditions: 25 ng/ml IFNγ, 200 μM Trp, 48 hours, class symbol
# T1 sequence (P14902 whole entry): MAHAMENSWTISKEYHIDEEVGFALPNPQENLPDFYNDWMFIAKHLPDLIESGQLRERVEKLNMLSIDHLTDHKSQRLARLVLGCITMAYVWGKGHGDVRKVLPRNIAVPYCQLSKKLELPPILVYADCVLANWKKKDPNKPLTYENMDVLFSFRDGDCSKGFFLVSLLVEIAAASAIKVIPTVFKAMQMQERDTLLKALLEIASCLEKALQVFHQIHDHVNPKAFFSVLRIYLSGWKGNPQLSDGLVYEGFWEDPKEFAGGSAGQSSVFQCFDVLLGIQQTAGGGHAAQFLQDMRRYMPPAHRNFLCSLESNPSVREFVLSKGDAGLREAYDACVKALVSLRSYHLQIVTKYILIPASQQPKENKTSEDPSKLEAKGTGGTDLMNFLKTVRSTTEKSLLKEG
row,SMILES,IC50
1,"O=C(Nc1ccc(Cl)cc1)C1CC12CCC(c1ccnc3ccc(F)cc13)CC2 (stereo not shown) [Compound 5-4, N-(4-chlorophenyl)-6-(6-fluoroquinolin-4-yl)spiro[2.5]octane-1-carboxamide]",0.1 to 1 µM
2,O=C(Nc1ccccc1Cl)[C@H]1C[C@]12CC[C@H](c1ccnc3ccc(F)cc31)CC2 [Compound 2-2],> 1 µM
3,"O=C(Nc1ccc(Cl)cc1F)[C@H]1C[C@]12CC[C@H](c1ccnc3ccc(F)cc31)CC2 (single isomer, unassigned) [Compound 4-7]",< 0.1 µM
4,COc1ccc2ncnc([C@H]3CC[C@@]4(CC3)C[C@@H]4C(=O)Nc3ccc(Cl)cc3)c2c1 [Compound 8-4E],0.1 to 1 µM
5,"O=C(Nc1ccc(Cl)cc1)C1CC12CCN(c1ccnc3ccc(F)cc13)CC2 (single isomer, unassigned) [Compound 12-7, N-(4-chlorophenyl)-6-(6-fluoroquinolin-4-yl)-6-azaspiro[2.5]octane-1-carboxamide]",> 1 µM
6,"O=C(Nc1ccc(Cl)cc1)C1([C@H]2CC[C@H](c3ccnc4ccc(F)cc43)CC2)CC1 [Compound 24-5B, N-(4-chlorophenyl)-1-(4-(6-fluoroquinolin-4-yl)cyclohexyl)cyclopropyl-1-carboxamide]",< 0.1 µM
7,"O=C(Nc1ccc(I)cc1)[C@H]1C[C@]12CC[C@H](c1ccnc3ccc(F)cc31)CC2 (single isomer, unassigned) [Compound 4-5]",< 0.1 µM
8,O=C([C@H]1C[C@]12CC[C@H](c1ccnc3ccc(F)cc31)CC2)N1CCC(C(F)(F)F)CC1 [Compound 1-20],> 1 µM
9,O=C(Nc1ccc(C(F)(F)F)cc1)[C@H]1C[C@]12CC[C@H](c1ccnc3ccc(F)cc31)CC2 [Compound 2-4],0.1 to 1 µM
10,"O=C(NC1CC2(CCN(c3ccnc4ccc(F)cc34)CC2)C1)c1ccc(Cl)cc1 [Compound 18-5, 4-chloro-N-(7-(6-fluoroquinolin-4-yl)-7-azaspiro[3.5]nonan-2-yl)benzamide]",< 0.1 µM
11,COc1cc2nccc([C@H]3CC[C@@]4(CC3)C[C@@H]4C(=O)Nc3ccc(Cl)cc3)c2cn1 [Compound 8-4F],< 0.1 µM
12,O=C(Nc1ccc(C2CC2)cc1)[C@H]1C[C@]12CC[C@H](c1ccnc3ccc(F)cc31)CC2 [Compound 1-13],0.1 to 1 µM
13,"O=C(Nc1ccc(Cl)cc1)C1([C@H]2CC[C@@H](c3ccnc4ccc(F)cc43)CC2)CC1 [Compound 24-5A, N-(4-chlorophenyl)-1-(4-(6-fluoroquinolin-4-yl)cyclohexyl)cyclopropyl-1-carboxamide]",< 0.1 µM
14,"O=C(Nc1ccc(Cl)cc1)C1(F)CC12CCC(c1ccnc3ccc(F)cc13)CC2 (stereo not shown) [Compound 10-4, N-(4-chlorophenyl)-1-fluoro-6-(6-fluoroquinolin-4-yl)spiro[2.5]octane-1-carboxamide]",0.1 to 1 µM
15,"O=C(Nc1ccc(Cl)cc1)C1CCC12CCC(c1ccnc3ccc(F)cc13)CC2 (stereo not shown) [Compound 15-3, N-(4-chlorophenyl)-7-(6-fluoroquinolin-4-yl)spiro[3.5]nonane-1-carboxamide]",> 1 µM
16,"CC1(C(=O)Nc2ccc(Cl)cc2)CC12CCC(c1ccnc3ccc(F)cc13)CC2 (single isomer, unassigned) [Compound 11-6, N-(4-chlorophenyl)-6-(6-fluoroquinolin-4-yl)-1-methylspiro[2.5]octane-1-carboxamide]",< 0.1 µM
17,"O=C(NC1CC12CCC(c1ccnc3ccc(F)cc13)CC2)c1ccc(Cl)cc1 (single isomer, unassigned) [Compound 9-5, 4-chloro-N-(6-(6-fluoroquinolin-4-yl)spiro[2.5]octan-1-yl)benzamide]",> 1 µM
18,O=C(Nc1ccc(F)cc1)[C@H]1C[C@]12CC[C@H](c1ccnc3ccc(F)cc31)CC2 [Compound 1-12],< 0.1 µM
19,O=C(Nc1cccc(Cl)c1)[C@H]1C[C@]12CC[C@H](c1ccnc3ccc(F)cc31)CC2 [Compound 1-15],0.1 to 1 µM
